The source made the active and inactive calls. No cut-off for these calls is given here.
Tests used:
A549 = experiment: Cytotoxic activity against A-549 cell line; type: functional, cell-based; conditions: Homo sapiens
P388 = experiment: Cytotoxic activity against P-388 cell line; type: functional, cell-based; conditions: Mus musculus
SK-MEL-28 = experiment: Cytotoxic activity against MEL-28 cell line; type: functional, cell-based; conditions: Homo sapiens
HCT-116 = experiment: Cytotoxic activity against H116 cell line; type: functional, cell-based; conditions: Homo sapiens
HT-29 = experiment: Cytotoxic activity against HT-29 cell line; type: functional, cell-based; conditions: Homo sapiens
[1] = Compound tested for inhibition of tubulin polymerization at 60 uM; No inhibition; type: functional
[2] = Compound tested for inhibition of tubulin polymerization; type: functional

| Structure (SMILES) | IC50 (A549) [nM] | IC50 (P388) [nM] | IC50 (SK-MEL-28) [nM] | IC50 (HCT-116) [nM] | IC50 (HT-29) [nM] | inhibition [1] | IC50 [2] [µM] |
| --- | --- | --- | --- | --- | --- | --- | --- |
| COc1cc(/C=C\c2ccc3ccccc3n2)cc(OC)c1OC | 316 | 316 | 316 | 316 | 316 |  |  |
| COc1cc(/C=C/c2ccc3cccnc3c2)cc(OC)c1OC | 1580 | 1580 | 1580 | 1580 | 1580 |  |  |
| COc1cc(/C=C/c2ccc3nc(C)c(C)nc3c2)cc(OC)c1OC | > 15800 | > 15800 | > 15800 | > 15800 | > 15800 |  |  |
| COc1cc(/C=C/c2ccc3nccnc3c2)cc(OC)c1OC | > 15800 | > 15800 | > 15800 | > 15800 | > 15800 |  |  |
| COc1cc(/C=C\c2ccnc3ccccc23)cc(OC)c1OC | 7940 | 7940 | 7940 | 7940 | 15800 |  |  |
| COc1cc(/C=C\c2ccc3nc(C)c(C)nc3c2)cc(OC)c1OC | > 15800 | > 15800 | > 15800 | > 15800 | > 15800 | inactive |  |
| COc1cc(/C=C\c2ccc3ncccc3c2)cc(OC)c1OC | 31.6 | 31.6 | 31.6 | 31.6 | 31.6 |  |  |
| COc1cc(/C=C/c2ccc3ccccc3n2)cc(OC)c1OC | 398 | 398 | 398 | 398 | 398 |  |  |
| COc1ccc(/C=C\c2cc(OC)c(OC)c(OC)c2)cc1O [COMBRETASTATIN A4] |  |  |  | 3.16 |  |  |  |
| COc1cc(/C=C/c2cnc3ccccc3c2)cc(OC)c1OC | > 3160 | > 3160 | > 3160 | > 3160 | > 3160 |  |  |
| COc1cc(/C=C\c2ccc3ccccc3c2)cc(OC)c1OC [NAPHTHYLCOMBRETASTATIN] |  |  |  | 15.8 |  |  |  |
| COc1cc(/C=C\c2ccc3cccnc3c2)cc(OC)c1OC | 158 | 158 | 158 | 158 | 158 |  | 20 |
| COc1cc(/C=C\c2cnc3ccccc3c2)cc(OC)c1OC | 398 | 398 | 398 | 398 | 398 |  |  |
| COc1cc(/C=C\c2ccc3nccnc3c2)cc(OC)c1OC | 7940 | 7940 | 7940 | 7940 | 7940 | inactive |  |

— ChEMBL document CHEMBL1146807, “A new family of quinoline and quinoxaline analogues of combretastatins” (Bioorg Med Chem Lett, 2004)
